Like-named read-outs stand apart in the source and are kept apart here. Each block holds one compound with its values, some of them ahead of it.
Tests used:
[1] = target: T1, glucocorticoid receptor (GR) (Homo sapiens, UniProt P04150); test: Glucocorticoid Receptor Competitor Assay Kit (Panvera) ligand binding; conditions: for GR binding RBA (dex = 100): Table 3; for GR binding RBA (dex = 100) / GR Binding RBA (dexamethasone = 100): relative binding affinity, dexamethasone = 100; for GR Binding RBA (dexamethasone = 100): Table 1
T1 construct: purchased Panvera Corp, Madison, Wis
T1 sequence (P04150 1-777): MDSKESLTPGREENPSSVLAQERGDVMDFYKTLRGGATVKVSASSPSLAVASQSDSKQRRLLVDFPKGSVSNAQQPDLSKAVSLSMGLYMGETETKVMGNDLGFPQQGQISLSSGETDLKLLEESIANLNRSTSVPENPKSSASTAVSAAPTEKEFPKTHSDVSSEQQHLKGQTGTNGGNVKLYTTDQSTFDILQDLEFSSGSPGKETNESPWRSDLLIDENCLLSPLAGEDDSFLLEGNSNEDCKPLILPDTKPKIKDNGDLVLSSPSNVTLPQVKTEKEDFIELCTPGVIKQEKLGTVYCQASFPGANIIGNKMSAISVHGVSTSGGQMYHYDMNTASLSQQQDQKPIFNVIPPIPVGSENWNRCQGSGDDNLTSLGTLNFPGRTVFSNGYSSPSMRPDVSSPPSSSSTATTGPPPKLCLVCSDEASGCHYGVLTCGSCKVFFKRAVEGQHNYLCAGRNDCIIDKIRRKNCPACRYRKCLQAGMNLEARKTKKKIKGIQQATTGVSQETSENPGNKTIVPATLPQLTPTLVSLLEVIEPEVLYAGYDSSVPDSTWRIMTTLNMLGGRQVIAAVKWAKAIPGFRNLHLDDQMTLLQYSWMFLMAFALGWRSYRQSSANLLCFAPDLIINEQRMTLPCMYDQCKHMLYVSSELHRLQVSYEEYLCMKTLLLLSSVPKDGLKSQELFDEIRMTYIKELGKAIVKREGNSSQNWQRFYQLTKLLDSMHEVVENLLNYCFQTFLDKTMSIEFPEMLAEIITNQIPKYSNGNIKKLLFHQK
Description: The Glucocorticoid Receptor Competitor Assay Kit (Panvera Corp, Madison, Wis.) was used for ligand binding studies. The recommended room temperature protocol was followed for all assayed ligands.

GR [2] = target: T2, GR (Homo sapiens, UniProt P04150); test: GRE (TAT3-Luc) activation luciferase assay in CV-1 cells transfected with GR; type: cell-based
T2 construct: expressed in transfected cells; host or cells: CV-1 cells, transient transfection (plasmid a gift of Keith Yamamoto, UCSF)
T2 sequence (P04150 1-777): T1 sequence (P04150 1-777)
Protocol: Cells were plated into tissue culture treated, 96 well flat bottom plates (25,000 cells/well), and incubated for 12 h at 37° C. Cells were then transfected using the Lipofectamine PLUS transfection reagent (Gibco BRL). DNA-lipid complexes of 5 ng GR, 50 ng TAT3-Luc, 7.5 ng β-galactosidase, 1 μL-well PLUS reagent and 0.67 μL-well lipofectamine in 50 μL/well serum free media were added to cells and incubated for 4 h at 37° C. Complexes were removed and hormones diluted in 5% charcoal-stripped FBS were added to the cells, which were then incubated for 24 hours at 37° C. Media was removed and the cells were washed with 100 μL Ca^+2, Mg^+2 free phosphate buffered saline (PBS). Lysis was achieved by adding 50 μL of Passive Lysis Buffer (Promega Corp, Madison, Wis.) and shaking the plate for 15 min. 15 μL of this lysate was then used to assay β-galactosidase activity (β-galactosidase enzyme assay system, Promega Corp., recommended procedures followed). The Luciferase Assay System (Promega Corp.) was used to assay luciferase activity. 100 μL of luciferase assay reagent was added rapidly to the plate and luminescence was measured for 10 ms/well on an Analyst AD Detection System (LJL Biosystems, Sunnyvale, Calif.).

GR [3] = target: T3, GR (Rattus norvegicus, UniProt P06536); test: AP-1 repression luciferase assay in U2OS cells stably transfected with rat GR; type: cell-based; conditions: Table 5, TPA-stimulated U2OS cells; for EC50: read-out: Repression AP-1 pot (EC50); for Emax: U2OS, 12 h, read-out: Repression AP-1 % max repression
T3 construct: expressed in transfected cells; gift of Keith Yamamoto
T3 sequence (P06536 1-795): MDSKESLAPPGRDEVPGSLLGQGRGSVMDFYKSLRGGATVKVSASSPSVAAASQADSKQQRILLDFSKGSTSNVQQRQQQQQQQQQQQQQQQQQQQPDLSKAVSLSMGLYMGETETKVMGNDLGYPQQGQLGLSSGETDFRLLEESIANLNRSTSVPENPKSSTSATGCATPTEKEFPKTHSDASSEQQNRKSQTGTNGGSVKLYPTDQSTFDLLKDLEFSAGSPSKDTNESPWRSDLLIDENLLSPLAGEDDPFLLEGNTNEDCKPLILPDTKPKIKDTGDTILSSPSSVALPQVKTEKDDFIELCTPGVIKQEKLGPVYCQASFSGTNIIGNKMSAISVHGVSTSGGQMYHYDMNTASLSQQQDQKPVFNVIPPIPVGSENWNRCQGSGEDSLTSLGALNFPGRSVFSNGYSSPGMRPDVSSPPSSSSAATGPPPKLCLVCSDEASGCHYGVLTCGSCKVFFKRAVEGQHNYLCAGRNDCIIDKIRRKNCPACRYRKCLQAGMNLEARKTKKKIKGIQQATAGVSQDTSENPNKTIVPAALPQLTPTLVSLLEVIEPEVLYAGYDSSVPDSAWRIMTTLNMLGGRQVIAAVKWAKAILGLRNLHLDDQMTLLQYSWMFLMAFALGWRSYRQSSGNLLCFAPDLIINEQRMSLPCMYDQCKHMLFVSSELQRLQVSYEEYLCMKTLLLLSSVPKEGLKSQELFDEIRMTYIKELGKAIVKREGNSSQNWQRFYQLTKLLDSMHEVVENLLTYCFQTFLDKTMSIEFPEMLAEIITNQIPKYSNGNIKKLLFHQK
Protocol: For API repression assays, U2OS cells stably transfected with rat GR were grown in similar media as for CV-1 cells with the exception of the FBS concentration, which was 10% and the only antibiotic was […]. Cells were plated and transfected in a similar fashion, except for plasmids, which in this case were 50 ng/well AP1-Luc and 10 ng/well β-galactosidase. Post-transfection, cells were incubated with either 50 ng/mL TPA (Phorbol 12-myristate 13-acetate), or 50 ng/mL TPA and various hormone dilutions in 10% charcoal treated FBS media. The cells were incubated for 12 h, and the lysis, β-galactosidase assay, and luciferase assay were performed as previously described.

Coll A = Coll A repression; type: cell-based; conditions: for Emax: read-out: Repression Coll A % max repression; for EC50: read-out: Repression Coll A pot (EC50)
MR = target: T4, MR (Homo sapiens, UniProt P08235); test: MR activation (max fold activation); type: cell-based; conditions: Table 4
T4 sequence (P08235 1-984): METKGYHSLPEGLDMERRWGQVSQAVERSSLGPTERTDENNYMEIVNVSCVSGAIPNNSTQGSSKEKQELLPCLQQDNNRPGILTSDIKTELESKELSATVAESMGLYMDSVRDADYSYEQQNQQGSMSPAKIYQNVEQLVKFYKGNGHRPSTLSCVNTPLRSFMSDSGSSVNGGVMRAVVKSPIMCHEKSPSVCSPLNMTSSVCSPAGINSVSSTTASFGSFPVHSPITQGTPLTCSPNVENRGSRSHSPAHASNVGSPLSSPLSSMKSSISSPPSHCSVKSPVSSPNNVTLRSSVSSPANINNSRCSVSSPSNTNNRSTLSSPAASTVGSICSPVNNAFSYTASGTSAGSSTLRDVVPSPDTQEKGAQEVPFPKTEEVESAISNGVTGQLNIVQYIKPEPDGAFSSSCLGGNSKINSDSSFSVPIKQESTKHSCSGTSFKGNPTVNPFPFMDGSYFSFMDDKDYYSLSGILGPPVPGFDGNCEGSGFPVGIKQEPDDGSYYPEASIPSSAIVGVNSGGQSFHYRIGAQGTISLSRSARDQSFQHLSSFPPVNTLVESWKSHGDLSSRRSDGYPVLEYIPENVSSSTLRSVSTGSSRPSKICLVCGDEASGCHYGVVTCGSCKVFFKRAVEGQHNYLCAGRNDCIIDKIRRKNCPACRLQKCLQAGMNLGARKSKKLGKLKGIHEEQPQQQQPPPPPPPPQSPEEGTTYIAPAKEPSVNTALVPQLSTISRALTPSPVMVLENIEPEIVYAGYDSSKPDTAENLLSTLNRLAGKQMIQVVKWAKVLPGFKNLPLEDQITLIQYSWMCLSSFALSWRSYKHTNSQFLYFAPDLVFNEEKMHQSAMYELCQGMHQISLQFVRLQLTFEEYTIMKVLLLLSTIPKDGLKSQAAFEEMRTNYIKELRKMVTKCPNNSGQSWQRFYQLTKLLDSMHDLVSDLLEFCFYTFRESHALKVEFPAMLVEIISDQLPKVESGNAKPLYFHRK

[4] = read-out: IC50 in a GR binding assay
[5] = Table 4, read-out: GR pot (EC50)
[6] = Table 2, read-out: GR Binding (IC50)

SMILES: CC12Cc3cnn(-c4cccc(C#Cc5ccccc5)c4)c3C=C1CCCC2=O (centres unmarked) [Compound 261, 4a-Methyl-1-(3-phenylethynyl-phenyl)-1,4,4a,6,7,8-hexahydro-benzo[f]indazol-5-one]
IC50 [1, 4]: 174 nM

SMILES: CC12Cc3cnn(-c4ccc(F)cc4)c3C=C1CCc1c2[nH]c2ccc(F)cc12 (centres unmarked) [Compound 267, 3-(4-fluoro-phenyl)-8-fluoro-11b-methyl-5,6,12-trihydro-indazolo[5,6-a]carbazole]
Emax (Coll A; Table 2): 75%
EC50 (Coll A; Table 2): 100 nM
GRE Activation Max fold activation (GR [2]; Table 2, fold): 18
IC50 [1, 6]: 130 nM

SMILES: CC12Cc3cnn(-c4ccc(F)cc4)c3C=C1CCCC2C(O)c1cc2ccccc2c2ccccc12 (centres unmarked) [Compound 259, [1-(4-Fluoro-phenyl)-4a-methyl-4,4a,5,6,7,8-hexahydro-1H-benzo[f]indazol-5-yl]-phenanthren-9-yl-methanol]
Emax (Coll A; Table 5): 73%
EC50 (Coll A; Table 5): 783 nM
EC50 (GR [2]; [5]): > 5000 nM
GR binding RBA (dex = 100) [1]: 72

SMILES: CC12Cc3cnn(-c4ccc(F)cc4)c3C=C1CCc1c2[nH]c2ccc(Br)cc12 (centres unmarked) [Compound 263, 3-(4-fluoro-phenyl)-8-bromo-11b-methyl-5,6,12-trihydro-indazolo[5,6-a]carbazole]
IC50 [1, 6]: 708 nM

SMILES: C[C@]12CCC(=O)C=C1CC[C@@H]1[C@@H]2[C@@H](O)C[C@]2(C=O)[C@@H](C(=O)CO)CC[C@@H]12 [Aldosterone, reference compound]
MR max fold activation (MR): 6.1 ± 1.5
GRE activation max fold activation (GR [2]; Table 4, fold): 41
EC50 (GR [2]; [5]): 765 nM

SMILES: COc1ccc2[nH]c3c(c2c1)CCC1=Cc2c(cnn2-c2ccc(F)cc2)CC13C (centres unmarked) [Compound 265, 3-(4-fluoro-phenyl)-8-methoxy-11b-methyl-5,6,12-trihydro-indazolo[5,6-a]carbazole]
IC50 [1, 6]: 239 nM

SMILES: CC12Cc3cnn(-c4ccc(F)cc4)c3C=C1CCC(=Cc1c3ccccc3cc3ccccc13)C2=O (centres unmarked) [Compound 269, 6-Anthracen-9-ylmethylene-1-(4-fluoro-phenyl)-4a-methyl-1,4,4a,6,7,8-hexahydro-benzo[f]indazol-5-one]
EC50 (Coll A; Table 2): > 5000 nM
EC50 (GR [2]; Table 2, read-out: GRE Activation GR pot (EC50)): > 5000 nM
IC50 [1, 6]: 43 nM

More lines, now with the values ahead:

IC50 [1, 4]: 436 nM
SMILES: CC12Cc3cnn(-c4ccc(F)cc4)c3C=C1CCCC2=O (centres unmarked) [Compound 205, 1-(4-Fluoro-phenyl)-4a-methyl-1,4,4a,6,7,8-hexahydro-benzo[f]indazol-5-one]

GRE activation max fold activation (GR [2]; Table 4, fold): 76
EC50 (GR [2]; [5]): 81 nM
GR binding RBA (dex = 100) [1]: 110
EC50 (GR [3]): 16.6 nM
Emax (GR [3]): 74%
SMILES: Cc1cc(C(O)C2CCCC3=Cc4c(cnn4-c4ccc(F)cc4)CC32C)ccc1O (centres unmarked) [Compound 235, 4-{[1-(4-Fluoro-phenyl)-4a-methyl-4,4a,5,6,7,8-hexahydro-1H-benzo[f]indazol-5-yl]-hydroxy-methyl}-2-methyl-phenol]

GR Binding RBA (dexamethasone = 100) [1]: 16
SMILES: Cc1cc(O)cc(C)c1C(=O)C1CCCC2=Cc3c(cnn3-c3ccc(F)cc3)CC21C (centres unmarked) [Compound 228, 4-{[1-(4-Fluoro-phenyl)-4a-methyl-4,4a,5,6,7,8-hexahydro-1H-benzo[f]indazol-5-yl]-keto-methyl}-3,5-dimethyl-phenol]

GRE activation max fold activation (GR [2]; Table 4, fold): 32 ± 2
EC50 (GR [2]; [5]): 143 ± 27 nM
GR binding RBA (dex = 100) [1]: 47
EC50 (GR [3]): 6.7 nM
Emax (GR [3]): 74%
SMILES: COc1cc(C(O)C2CCCC3=Cc4c(cnn4-c4ccc(F)cc4)CC32C)cc(OC)c1OC (centres unmarked) [Compound 223, [1-(4-Fluoro-phenyl)-4a-methyl-4,4a,5,6,7,8-hexahydro-1H-benzo[f]indazol-5-yl]-(3,4,5-trimethoxyphenyl)-methanol]

GR Binding RBA (dexamethasone = 100) [1]: 22
SMILES: Cc1cc(O)cc(C)c1CC1CCCC2=Cc3c(cnn3-c3ccc(F)cc3)CC21C (centres unmarked) [Compound 230, 4-{[1-(4-Fluoro-phenyl)-4a-methyl-4,4a,5,6,7,8-hexahydro-1H-benzo[f]indazol-5-yl]-methyl}-3,5-dimethyl-phenol]

EC50 (GR [2]; Table 1, read-out: GR pot(EC50)): 82 nM
GR Binding RBA (dexamethasone = 100) [1]: 26
SMILES: COCOC(c1c(C)cc(O)cc1C)C1CCCC2=Cc3c(cnn3-c3ccc(F)cc3)CC21C (centres unmarked) [Compound 232, 4-{[1-(4-Fluoro-phenyl)-4a-methyl-4,4a,5,6,7,8-hexahydro-1H-benzo[f]indazol-5-yl]-methoxymethoxy-methyl}-3,5-dimethyl-phenol]

Reference: US7947726B2, “Non-steroidal ligands for the glucocorticoid receptor, and compositions thereof” (The Regents of the University of California, priority 2002, dated 2011)
